target: S1P5 (Homo sapiens, UniProt Q9H228); test: [35S]-GTPγS binding assay (S1P5 agonism), CHO cell membranes; assay type: biochemical; settings: membranes of CHO cells expressing recombinant S1P5 receptors, measure of S1P5 agonism
Description: CHO cells expressing recombinant S1P5 receptors were cultured in 500 cm^2 culture trays and, once confluent, rinsed and detached with cell-lifting buffer (10 mM HEPES, 154 mM NaCl, 6.85 mM EDTA, pH 7.4). Cells were then pelleted by centrifugation, resuspended, and homogenized in membrane preparation buffer (10 mM HEPES and 10 mM EDTA, pH 7.4) using a Polytron PT 1200E homogenizer (Kinematica, Luzern, Switzerland). Cellular proteins were pelleted by centrifugation at 48,000×g at 4° C. for 30 minutes. The resulting supernatant was discarded, and the pellet was re-suspended again in membrane preparation buffer, homogenized for a second time, and then centrifuged again as described above. The final cellular protein pellet was suspended in ice cold resuspension buffer (10 mM HEPES and 0.1 mM EDTA, pH 7.4), divided into aliquots, and stored at −80° C. until use.
Functional binding assays for [^35S]-GTPγS were performed in 96-well non-binding surface plates with a final volume of 200 μL. The test compounds were serially diluted in DMSO and added to assay plates using a Tecan D300E digital printer with a total volume of […]. The control sphingosine-1-phosphate (S1P) was prepared separately by preparing a 400 μM stock solution from a 100 nmol pellet of S1P in 10 mM Na2CO3 with 2% […]. The serial dilution of S1P was done using complete assay buffer (20 mM HEPES, 10 mM MgCl2, 100 mM NaCl, 1 mM EDTA, 0.1% fatty acid free bovine serum albumin (BSA), and 30 μg/mL saponin, pH 7.4) and transferred to wells already containing 0.4 μL DMSO. All the wells were then loaded to a total volume of 40 μL of complete assay buffer, except the non-specific binding (NSB) wells. For NSB wells, 40 μL/well of 50 μM GTPγS (Sigma Aldrich, cat #G8634, St. Louis, MO) was added to wells containing 0.4 μL of DMSO. The assay was started by the addition of 120 μL/well of CHO-SlP receptor membrane solution containing 40 μg/mL of membrane protein, 16.67 μM guanosine diphosphate (GDP; Sigma Aldrich, cat #G7127, St. Louis, MO), and 2.5 mg/mL of WGA PVT SPA beads in complete buffer. Assay plates were then sealed and incubated at room temperature with gentle agitation for 30 minutes. Next, 40 µL/well of 1 nM of [^35S]-GTPγS (PerkinElmer, cat #NEG030X25OUC, Waltham, MA) in basic assay buffer (20 mM HEPES, 10 mM MgCl2, 100 mM NaCl, and 1 mM EDTA, pH7.4) was added to the assay plates to yield a final concentration of 200 pM and the plates were further incubated for 40 minutes at room temperature with gentle agitation. The assay was terminated by centrifugation of the plates at 1000 rpm for 3 minutes using an Eppendorf 5810R centrifuge (Eppendorf, Hamburg, Germany) and G protein bound radioactivity was quantitated using a MicroBeta2 microplate scintillation counter (PerkinElmer, Waltham, MA). As G protein bound radioactivity directly correlates to receptor activation and coupling to the G protein, this assay is a measure of S1P5 agonism.

S1P5, sequence (Q9H228 whole entry, species assumed): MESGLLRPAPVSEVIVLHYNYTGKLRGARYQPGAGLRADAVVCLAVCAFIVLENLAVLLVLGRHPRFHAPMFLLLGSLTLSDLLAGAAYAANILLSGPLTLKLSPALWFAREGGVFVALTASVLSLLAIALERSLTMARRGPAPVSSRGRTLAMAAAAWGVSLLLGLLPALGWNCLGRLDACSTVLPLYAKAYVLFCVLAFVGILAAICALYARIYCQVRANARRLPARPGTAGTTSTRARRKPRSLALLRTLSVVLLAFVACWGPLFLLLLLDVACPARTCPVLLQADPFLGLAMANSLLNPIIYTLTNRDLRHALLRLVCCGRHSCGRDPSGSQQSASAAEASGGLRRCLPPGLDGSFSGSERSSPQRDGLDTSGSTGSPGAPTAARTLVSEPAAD

Compound	EC50
O=C(O)C1CCN(C2CCc3cc(OCc4cccc(C(F)(F)F)c4)ccc32)CC1 (single isomer, unassigned) [Compound 26b, 1-(5-((3-(trifluoromethyl)benzyl)oxy)-2,3-dihydro-1H-inden-1-yl)piperidine-4-carboxylic acid]	100 to 1000 nM
Cc1ccc(COc2ccc3c(c2)CCC3N2CC(C(=O)O)C2)c(F)c1 (centres unmarked) [Compound 4, 1-(5-((2-fluoro-4-methylbenzyl)oxy)-2,3-dihydro-1H-inden-1-yl)azetidine-3-carboxylic acid]	10 to 100 nM
CC(C)Oc1ccc(COc2ccc3c(c2)CCC3N2CC(C(=O)O)C2)cc1C#N (centres unmarked) [Compound 6, 1-(5-((3-cyano-4-isopropoxybenzyl)oxy)-2,3-dihydro-1H-inden-1-yl)azetidine-3-carboxylic acid]	10 to 100 nM
O=C(O)C1CN(C2CCc3cc(OCc4ccc(C5CC5)cc4F)ccc32)C1 (centres unmarked) [Compound 7, 1-(5-((4-cyclopropyl-2-fluorobenzyl)oxy)-2,3-dihydro-1H-inden-1-yl)azetidine-3-carboxylic acid]	10 to 100 nM
O=C(O)C1CN(C2CCc3cc(OCc4ccc(C5CC5)cc4Cl)ccc32)C1 (centres unmarked) [Compound 8, 1-(5-((2-chloro-4-cyclopropylbenzyl)oxy)-2,3-dihydro-1H-inden-1-yl)azetidine-3-carboxylic acid]	10 to 100 nM
O=C(O)C1CN(C2CCc3cc(OCc4ccc(C5CC5)c(Cl)c4)ccc32)C1 (centres unmarked) [Compound 10, 1-(5-((3-chloro-4-cyclopropylbenzyl)oxy)-2,3-dihydro-1H-inden-1-yl)azetidine-3-carboxylic acid]	10 to 100 nM
O=C(O)C1CN(C2CCc3cc(OCc4ccccc4F)ccc32)C1 (centres unmarked) [Compound 11, 1-(5-((2-fluorobenzyl)oxy)-2,3-dihydro-1H-inden-1-yl)azetidine-3-carboxylic acid]	10 to 100 nM
O=C(O)C1CN(C2CCc3cc(OCc4cccc(F)c4)ccc32)C1 (centres unmarked) [Compound 12, 1-(5-((3-fluorobenzyl)oxy)-2,3-dihydro-1H-inden-1-yl)azetidine-3-carboxylic acid]	10 to 100 nM
O=C(O)C1CN(C2CCc3cc(OCc4ccc(F)cc4)ccc32)C1 (centres unmarked) [Compound 13, 1-(5-((4-fluorobenzyl)oxy)-2,3-dihydro-1H-inden-1-yl)azetidine-3-carboxylic acid]	10 to 100 nM
O=C(O)C1CN(C2CCc3cc(OCc4ccc(F)cc4F)ccc32)C1 (centres unmarked) [Compound 14, 1-(5-((2,4-difluorobenzyl)oxy)-2,3-dihydro-1H-inden-1-yl)azetidine-3-carboxylic acid]	10 to 100 nM
O=C(O)C1CN(C2CCc3cc(OCc4cc(F)ccc4F)ccc32)C1 (centres unmarked) [Compound 15, 1-(5-((2,5-difluorobenzyl)oxy)-2,3-dihydro-1H-inden-1-yl)azetidine-3-carboxylic acid]	10 to 100 nM
O=C(O)C1CN(C2CCc3cc(OCc4ccc(F)c(Cl)c4)ccc32)C1 (centres unmarked) [Compound 16, 1-(5-((3-chloro-4-fluorobenzyl)oxy)-2,3-dihydro-1H-inden-1-yl)azetidine-3-carboxylic acid]	10 to 100 nM
O=C(O)C1CN(C2CCc3cc(OCc4cc(F)cc(F)c4F)ccc32)C1 (centres unmarked) [Compound 18, 1-(5-((2,3,5-trifluorobenzyl)oxy)-2,3-dihydro-1H-inden-1-yl)azetidine-3-carboxylic acid]	10 to 100 nM
O=C(O)C1CN(C2CCc3cc(OCc4ccc(F)c(F)c4)ccc32)C1 (centres unmarked) [Compound 19, 1-(5-((3,4-difluorobenzyl)oxy)-2,3-dihydro-1H-inden-1-yl)azetidine-3-carboxylic acid]	10 to 100 nM
O=C(O)C1CN(C2CCc3cc(OCc4cccc(I)c4)ccc32)C1 (centres unmarked) [Compound 20, 1-(5-((3-iodobenzyl)oxy)-2,3-dihydro-1H-inden-1-yl)azetidine-3-carboxylic acid]	10 to 100 nM
O=C(O)C1CN(C2CCc3cc(OCc4ccc(I)cc4)ccc32)C1 (centres unmarked) [Compound 21, 1-(5-((4-iodobenzyl)oxy)-2,3-dihydro-1H-inden-1-yl)azetidine-3-carboxylic acid]	100 to 1000 nM
O=C(O)[C@H]1[C@@H]2CN(C3CCc4cc(OCc5c(Cl)cccc5Cl)ccc43)C[C@@H]21 (stereo partly drawn) [Compound 22, (1R,5S,6r)-3-(5-((2,6-dichlorobenzyl)oxy)-2,3-dihydro-1H-inden-1-yl)-3-azabicyclo[3.1.0]hexane-6-carboxylic acid]	100 to 1000 nM
CC1(C)CC(C(=O)O)CCN1C1CCc2cc(OCc3c(Cl)cccc3Cl)ccc21 (centres unmarked) [Compound 28, 1-(5-((2,6-dichlorobenzyl)oxy)-2,3-dihydro-1H-inden-1-yl)-2,2-dimethylpiperidine-4-carboxylic acid]	10 to 100 nM
CC1(C(=O)O)CCN(C2CCc3cc(OCc4c(Cl)cccc4Cl)ccc32)CC1 (centres unmarked) [Compound 29, 1-(5-((2,6-dichlorobenzyl)oxy)-2,3-dihydro-1H-inden-1-yl)-4-methylpiperidine-4-carboxylic acid]	10 to 100 nM

Results, then the compound that gave them:

EC50	Compound
10 to 100 nM	O=C(O)[C@H]1CCN(C2CCc3cc(OCc4c(Cl)cccc4Cl)ccc32)C1 (single isomer, unassigned) [Compound 24a]
1 to 10 nM	O=C(O)[C@H]1CCN(C2CCc3cc(OCc4c(Cl)cccc4Cl)ccc32)C1 (single isomer, unassigned) [Compound 24b]
1 to 10 nM	O=C(O)[C@@H]1CCN(C2CCc3cc(OCc4c(Cl)cccc4Cl)ccc32)C1 (single isomer, unassigned) [Compound 25a]
1 to 10 nM	O=C(O)[C@@H]1CCN(C2CCc3cc(OCc4c(Cl)cccc4Cl)ccc32)C1 (single isomer, unassigned) [Compound 25b]
10 to 100 nM	O=C(O)C1CCN(C2CCc3cc(OCc4cccc(C(F)(F)F)c4)ccc32)CC1 (single isomer, unassigned) [Compound 26a, 1-(5-((3-(trifluoromethyl)benzyl)oxy)-2,3-dihydro-1H-inden-1-yl)piperidine-4-carboxylic acid]
1 to 10 nM	Cc1ccc(COc2ccc3c(c2)CCC3N2CC(C(=O)O)C2)cc1Cl (centres unmarked) [Compound 1, 1-(5-((3-chloro-4-methylbenzyl)oxy)-2,3-dihydro-1H-inden-1-yl)azetidine-3-carboxylic acid]
10 to 100 nM	Cc1ccc(COc2ccc3c(c2)CCC3N2CC(C(=O)O)C2)cc1C(F)(F)F (centres unmarked) [Compound 2, 1-(5-((4-methyl-3-(trifluoromethyl)benzyl)oxy)-2,3-dihydro-1H-inden-1-yl)azetidine-3-carboxylic acid]
1 to 10 nM	Cc1ccc(COc2ccc3c(c2)CCC3N2CC(C(=O)O)C2)c(Cl)c1 (centres unmarked) [Compound 3, 1-(5-((2-chloro-4-methylbenzyl)oxy)-2,3-dihydro-1H-inden-1-yl)azetidine-3-carboxylic acid]
1 to 10 nM	CC(C)Oc1ccc(COc2ccc3c(c2)CCC3N2CC(C(=O)O)C2)cc1C(F)(F)F (centres unmarked) [Compound 5, 1-(5-((4-isopropoxy-3-(trifluoromethyl)benzyl)oxy)-2,3-dihydro-1H-inden-1-yl)azetidine-3-carboxylic acid]
1 to 10 nM	O=C(O)C1CN(C2CCc3cc(OCc4ccc(C5CC5)c(C(F)(F)F)c4)ccc32)C1 (centres unmarked) [Compound 9, 1-(5-((4-cyclopropyl-3-(trifluoromethyl)benzyl)oxy)-2,3-dihydro-1H-inden-1-yl)azetidine-3-carboxylic acid]
1 to 10 nM	O=C(O)C1CN(C2CCc3cc(OCc4cc(F)c(F)cc4F)ccc32)C1 (centres unmarked) [Compound 17, 1-(5-((2,4,5-trifluorobenzyl)oxy)-2,3-dihydro-1H-inden-1-yl)azetidine-3-carboxylic acid]
1 to 10 nM	O=C(O)[C@@H]1[C@@H]2CN(C3CCc4cc(OCc5c(Cl)cccc5Cl)ccc43)C[C@@H]21 (stereo partly drawn) [Compound 23, (1R,5S,6s)-3-(5-((2,6-dichlorobenzyl)oxy)-2,3-dihydro-1H-inden-1-yl)-3-azabicyclo[3.1.0]hexane-6-carboxylic acid]
1 to 10 nM	O=C(O)C1CC2(C1)CN(C1CCc3cc(OCc4c(Cl)cccc4Cl)ccc31)C2 (centres unmarked) [Compound 27, 2-(5-((2,6-dichlorobenzyl)oxy)-2,3-dihydro-1H-inden-1-yl)-2-azaspiro[3.3]heptane-6-carboxylic acid]

Source: patent US20240376048A1 (Celgene Corporation, priority 2021, published 2024)
